# Reference: publication PMC4667226 (2015)
# Columns and labels:
# [1] = test system: c-myc (DNA, G4) TGAGGGTGGTGAGGGTGGGGAAGG; assay: fluorescence titration; conditions: K+ (100 mM KCl, 10 mM potassium phosphate; quadruplex annealing buffer); pH 7.0, 25 °C; site 1 of 2
# [2] = test system: Tel7 (DNA, G4) TTAGGGT; assay: NMR titration, NOESY and restrained MD structure; conditions: K+; 298 K, H2O/D2O 9:1; stacks at T1pT2 and G6pT7; imino signals persist to 343 K versus lost at 323 K
# [3] = test system: c-kit21up (DNA, G4) CGGGCGGGCGCGAGGGAGGGG; assay: fluorescence titration; conditions: K+ (100 mM KCl, 10 mM potassium phosphate; quadruplex annealing buffer); pH 7.0, 25 °C; single site
# [4] = test system: Tel7 (DNA, G4) TTAGGGT; assay: fluorescence titration; conditions: K+ (100 mM KCl, 10 mM potassium phosphate; quadruplex annealing buffer), pH 7.0, 25 °C; for Kd1: site 1 of 2
# [5] = test system: Tel22 (DNA, G4) AGGGTTAGGGTTAGGGTTAGGG; assay: fluorescence titration; conditions: K+ (100 mM KCl, 10 mM potassium phosphate; quadruplex annealing buffer); pH 7.0, 25 °C; site 1 of 2
compound,measurement,setting,value
O=c1c(O)c(-c2ccc(O)c(O)c2)oc2cc(O)cc(O)c12,Kd1,[1],138 nM
same,binding,[2],yes
same,Kd1,[3],1.13 µM
same,Kd1,[4],4.9 nM
same,Kd1,[5],30.2 nM
O=c1c(-c2ccc(O)cc2)coc2cc(O)cc(O)c12,Kd,[4]; same value under Kd1 and Kd2 (single binding pattern),26.5 µM
O=c1cc(-c2ccc(O)c(O)c2)oc2cc(O)cc(O)c12,Kd1,[4],23 nM
C[C@@H]1O[C@@H](OC[C@H]2O[C@@H](Oc3c(-c4ccc(O)c(O)c4)oc4cc(O)cc(O)c4c3=O)[C@H](O)[C@@H](O)[C@@H]2O)[C@H](O)[C@H](O)[C@H]1O,Kd1,[4],38 nM
